Columns and labels:
[1] = as described in DE 43 32 283 / DE 43 32 284; cited from earlier work
endometriosis [2] = assay: Sequential treatment of endometriosis with an LHRH agonist and J867; type: in vivo, human
Protocol: Women with endometriosis are treated for 2-3 months with an LHRH agonist such as Lupron. After the cessation of LHRH-agonist therapy women are treated for the next 3-6 months with J 867 in order to avoid osteoprorosis induced by prolonged treatment with LHRH agonist. During treatment with 5-50 mg J 867 the therapeutic effects of the LHRH-agonist are maintained.

pregnant guinea pigs = assay: Abortifacient / labor inducing activity in pregnant guinea pigs; type: in vivo, guinea pig; conditions: for abortifacient activity ED50, guinea pig: s.c., treatment day 43-44 of pregnancy, autopsy day 50; for ranking of abortifacient activity: treated on days 43 and 44 of pregnancy, observed until day 50
Protocol: In the guinea pig model which allows a good prediction of the effects in humans with respect to the abortifacient activity (Elger W, Beier S., Chwalisz K, Fähnrich M, Hasan S H, Henderson D, Neef G, Rohde R (1986): Studies on the mechanism of action of progesterone antagonists. J Steroid Biochem 25: 835-845) the mesoprogestins J 867, J 912, J 956, J 1042 lead up to 100 mg/kg/day to a maximal abortion rate of 20%.
The guinea pig is considered as relevant model of human gestation and parturition (Elger W, Fähnrich M, Beier S, Quing S S, Chwalisz K (1987). Endometrial and myometrial effects of progesterone antagonists in pregnant guinea pigs. Am J Obstet Gynecol 157: 1065-1074; Elger W, Neef G, Beier S, Fähnrich M, Gründel M, Heermann J, Malmendier A, Laurent D, Puri C P, Singh M M, Hasan S H, Becker H (1992). Evaluation of antifertility activities of antigestagens in animal model. In: Puri C P and Van Look P F A (eds), Current Concepts in Fertility Regulation and Reproduction. Wiley Eastern Limited, New Delhi, pp. 303-328; Elger W, Faehnrich M, Beier S, Qing S S, Chwalisz K (1986). Mechanism of action of progesterone antagonists in pregnant guinea pigs. Contraception 6: 47-62; Elger W, Chwalisz K, Faehnrich M, Hasan S H, Laurent D, Beier S, Ottow E, Neef G, Garfield R E (1990). Studies on labor-conditioning and labor-inducing effects of antiprogesterones in animal model. In: Garfield R E (eds), Norwell, pp. 153-175.) The mechanism of abortion of antiprogestins in this species is the initiation of labor and finally the expulsion of the conceptus. Abortifacient effects in the rat during very early pregnancy reflect inhibitory effects on nidation rather than initiation of uterine contractions. Studies in the rat model lead to “overestimation” of the potential of antiprogestins to terminate pregnancy in humans. Conversely, in the guinea pig model, irrespective of the antiprogestin doses, there were high rates of ongoing pregnancies similar to the situation in humans (Elger et al., Current Concepts in Fertility Regulation and Reproduction cited above). Furthermore, in both humans and guinea pigs, there is a strong synergism between antiprogestins and prostaglandins with respect the induction of labor (see the articles cited above and Elger W, Beier S (1983). Prostaglandine and Antigestagene für den Schwangerschaftsabbruch (Prostaglandins and antigestagens for pregnancy termination). German Patent DE 3337450 12; Van Look P, Bygdeman M (1989). Antiprogestational steroids: a new dimension in human fertility regulation. Oxford reviews of reproductive medicine 11: 2-60).
Pregnant guinea pigs were treated on days 43 and 44 of pregnancy and observed until day 50 of gestation. For the effects of various treatments see table 1 and FIG. 2. It is typical for this model that expulsions occur with a delay of several days after treatment. It can be seen that Mesoprogestins have a much reduced abortifacient activity compared to RU486. […] The differences with respect to abortifacient activity seem qualitative ones. It is not possible to overcome the low abortifacient activity of a Mesoprogestin by the use of a higher dose.
FIG. 2 is graphs showing data on the assessment on cumulative rate of abortion until day 50 in guinea pigs treated on days 43 and 44 of pregnancy.

endometriosis [3] = assay: Treatment of endometriosis in women; type: in vivo, human; conditions: women with endometriosis, 3-6 months, 5-50 mg
[4] = as described in DE 43 32 283 / DE 43 32 284; cited from earlier work; remark: listed apart in the source
[5] = biological target: T1, PR (progesterone receptor) (Homo sapiens, UniProt P06401); assay: Relative binding activity (RBA) at PR, progesterone = 100%; conditions: by Kaufmann
T1 sequence (P06401 1-933): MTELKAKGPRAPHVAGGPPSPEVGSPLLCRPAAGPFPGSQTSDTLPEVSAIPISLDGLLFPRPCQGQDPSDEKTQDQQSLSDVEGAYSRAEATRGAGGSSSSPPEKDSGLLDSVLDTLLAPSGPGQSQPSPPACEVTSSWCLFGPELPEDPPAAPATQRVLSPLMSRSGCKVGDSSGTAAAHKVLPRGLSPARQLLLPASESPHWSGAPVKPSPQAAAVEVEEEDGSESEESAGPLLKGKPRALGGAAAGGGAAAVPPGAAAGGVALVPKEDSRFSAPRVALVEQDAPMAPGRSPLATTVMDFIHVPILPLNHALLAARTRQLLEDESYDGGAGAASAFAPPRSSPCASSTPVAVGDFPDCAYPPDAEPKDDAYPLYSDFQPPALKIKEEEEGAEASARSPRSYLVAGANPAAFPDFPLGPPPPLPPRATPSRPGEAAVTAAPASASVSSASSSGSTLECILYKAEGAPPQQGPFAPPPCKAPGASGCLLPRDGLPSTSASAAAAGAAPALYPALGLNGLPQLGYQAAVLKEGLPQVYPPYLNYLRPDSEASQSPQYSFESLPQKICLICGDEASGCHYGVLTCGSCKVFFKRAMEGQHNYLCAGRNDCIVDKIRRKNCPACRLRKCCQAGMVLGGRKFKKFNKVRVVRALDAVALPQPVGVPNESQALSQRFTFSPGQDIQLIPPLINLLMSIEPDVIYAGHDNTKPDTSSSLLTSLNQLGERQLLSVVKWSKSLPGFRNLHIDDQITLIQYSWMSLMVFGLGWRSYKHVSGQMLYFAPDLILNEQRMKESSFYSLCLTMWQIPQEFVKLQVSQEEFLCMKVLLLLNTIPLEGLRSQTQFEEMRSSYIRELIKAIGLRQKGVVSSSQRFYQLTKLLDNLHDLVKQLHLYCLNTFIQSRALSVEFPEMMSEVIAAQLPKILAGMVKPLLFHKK

cyclic guinea pigs = conditions: cited from earlier work
uterine fibroids = assay: Treatment of uterine fibroids (Example 5); type: in vivo, human; conditions: 3-6 months, 5-50 mg

SMILES	antiprogestagenic activity [1]	therapeutic effects of the LHRH-agonist during following treatment (endometriosis [2]; 5-50 mg for 3-6 months after 2-3 months LHRH agonist)	estrogen deficiency (endometriosis [2]; women with endometriosis)	abortifacient activity ED50, guinea pig (pregnant guinea pigs)	ranking of abortifacient activity (pregnant guinea pigs)	pelvic pain during treatment (endometriosis [3])	antiglucocorticoid activity compared to RU 486 [4]	RBA (%) PR [5]	uterine weights (cyclic guinea pigs)	pelvic pain during treatment (uterine fibroids)
COC[C@]1(OC)CC[C@H]2[C@@H]3CCC4=CC(=O)CCC4=C3[C@@H](c3ccc(/C=N/O)cc3)C[C@@]21C [J867, 4-[17β-Methoxy-17α-(methoxymethyl)-3-oxoestra-4,9-dien-11β-yl]benzaldehyd-(1E)-oxim]	strong	maintained	does not produce estrogen deficiency	>100 mg/animal/day	RU486>J956>J867, J912>J1042	reduction of pelvic pain was observed	markedly reduced	302%	reduced uterine weights	reduction of pelvic pain was observed
CCNC(=O)O/N=C/c1ccc([C@H]2C[C@@]3(C)[C@@H](CC[C@]3(COC)OC)[C@@H]3CCC4=CC(=O)CCC4=C32)cc1 [J956, 4-[17β-Methoxy-17α-(methoxymethyl)-3-oxoestra-4,9-dien-11β-yl]benzaldehyd-(1E)-[O-(ethylamino)carbonyl]oxim]				20 mg/animal/day	RU486>J956>J867, J912>J1042			345%		
CCSC(=O)O/N=C/c1ccc([C@H]2C[C@@]3(C)[C@@H](CC[C@]3(COC)OC)[C@@H]3CCC4=CC(=O)CCC4=C32)cc1 [J1042, 4-[17β-Methoxy-17α-(methoxymethyl)-3-oxoestra-4,9-dien-11β-yl]benzaldehyd-(1E)-[O-(ethylthio)carbonyl]oxim]				>>100 mg/animal/day	RU486>J956>J867, J912>J1042			164%		

Reference: patent US8193252B1, “Mesoprogestins (progesterone receptor modulators) for the treatment and prevention of benign hormone dependent gynecological disorders” (Bayer Pharma AG, priority 1999, dated 2012)
